The target of one data set is PHD2 (Homo sapiens, UniProt Q9GZT9). The data set can be described thus: Competition-based NMR reporter ligand displacement assay ([13C]-2OG / [13C]-CODD). The format is binding. The conditions noted are these: 50 μM apo-PHD2, 400 μM Zn(II), 400 μM competitor. Here is the method: For 2OG displacement assays, selective ^1H-^13C 1D-HSQC experiments were conducted at 700 MHz using a Bruker Avance III spectrometer equipped with an inverse TCI cryoprobe optimized for ^1H observation. The CLIP-HSQC sequence was used (without ^13C decoupling). Typical experimental parameters were as follows: acquisition time 0.58 s, relaxation delay 2 s, number of transients 256−1600. The 1JCH was set to 160 Hz. For the selective version of the experiment, a 6.8 ms Q3 180 degree pulse was used, and selective irradiation was applied at the appropriate [^13C] chemical shift. Three millimeter MATCH tubes with a 160 μL final sample volume were used. Solutions were buffered using Tris-D11 50 mM (pH 7.5) dissolved in 90% H2O and 10% D2O. Assays were conducted at 298 K in solutions typically containing 50 μM apo-PHD2, 400 μM Zn(II), 50 μM 1,2,3,4-[^13C]-2OG or [^13C]-labeled CODD (uniformly [^13C]-labeled at proline-564) and 400 μM competitor (except unlabeled CODD competitor used at 800 μM). Selective irradiation was applied at 30.5 ppm for [^13C]-2OG and 24.25 ppm for [^13C]-labeled CODD. Percentage displacement was calculated according to equation: (I−I0)/(Iblank−I0) where I 0 is the intensity of the reporter in the presence of protein but without inhibitor, I is the intensity of the reporter in the presence of protein and inhibitor, and I blank is the intensity of the reporter without protein or inhibitor.
Chain of PHD2 (Q9GZT9 whole entry): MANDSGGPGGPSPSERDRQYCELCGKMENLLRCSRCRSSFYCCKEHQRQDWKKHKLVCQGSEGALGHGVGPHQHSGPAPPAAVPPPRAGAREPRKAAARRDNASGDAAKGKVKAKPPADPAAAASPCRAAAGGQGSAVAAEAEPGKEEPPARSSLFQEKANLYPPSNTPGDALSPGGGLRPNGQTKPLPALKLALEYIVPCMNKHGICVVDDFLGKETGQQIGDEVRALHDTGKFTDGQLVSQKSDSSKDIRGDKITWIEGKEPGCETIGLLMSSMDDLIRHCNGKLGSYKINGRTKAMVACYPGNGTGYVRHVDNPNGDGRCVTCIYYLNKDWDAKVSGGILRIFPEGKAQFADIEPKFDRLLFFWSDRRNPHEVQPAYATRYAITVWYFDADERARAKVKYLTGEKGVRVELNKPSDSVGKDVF
The results reveal that the previously described inhibitor IOX2 displaces 2OG from PHD2 (S3A Fig), consistent with its predicted binding mode. […] Previous crystallographic studies have shown that the HIF substrate can still bind even when the 2OG active site is occupied by some, but not all, inhibitors.

Another data set concerns HIF1α and HIF2α. In words: HIFα induction in tissues of treated mice (immunoblotting). The format is in vivo, C57BL/6 mice. The conditions noted are these: i.p. Here is the method: All animal experiments were performed on male C57BL/6 mice aged 3 months (purchased from Harlan Laboratories, Blackthorn) housed in specific pathogen free conditions with free access to water and standard chow. Mice were injected intraperitonially with the inhibitor (dissolved in Hanks’ buffered saline solution, pH 7.0, 5% DMSO final) or vehicle at the indicated doses for the indicated time as previously described. Tissues from treated mice were harvested and ‘snap frozen’ with liquid nitrogen before being stored at -80°C. For immunoblotting, a portion of the tissues was removed, weighed and homogenised in urea/SDS buffer before being analysed by immunoblotting with HIF1α rabbit polyclonal antibody (10006421, Cayman Chemical, 1:1000) or HIF2α rabbit polyclonal antibody (PM9 [27], 1:1000). For RNA extraction, tissues were ‘snap frozen’ in liquid nitrogen immediately after harvesting, then ground to a fine powder using a cryogenic tissue pulveriser, keeping samples on dry ice at all times and processed for total RNA extraction using the mirVana miRNA isolation kit (AM1560, Life Technologies) according to the manufacturer’s protocol for processing frozen tissues. All animal procedures were compliant with the UK Home Office Animals (Scientific Procedures) Act 1986 and Local Ethical Review Procedures (University of Oxford Medical Sciences Division Ethical Review Committee).
The inhibitors or vehicle controls were injected intraperitonially into wild type C57BL/6 mice and sacrificed after the indicated treatment time before harvesting their tissues to be analysed for HIFα levels by immunoblotting.
(In general: Immunoblotting shows a protein as a band on a membrane.)

A further data set deals with T1, JMJD2A (KDM4A) (Homo sapiens, UniProt O75164).
T1 sequence (O75164 1-1064): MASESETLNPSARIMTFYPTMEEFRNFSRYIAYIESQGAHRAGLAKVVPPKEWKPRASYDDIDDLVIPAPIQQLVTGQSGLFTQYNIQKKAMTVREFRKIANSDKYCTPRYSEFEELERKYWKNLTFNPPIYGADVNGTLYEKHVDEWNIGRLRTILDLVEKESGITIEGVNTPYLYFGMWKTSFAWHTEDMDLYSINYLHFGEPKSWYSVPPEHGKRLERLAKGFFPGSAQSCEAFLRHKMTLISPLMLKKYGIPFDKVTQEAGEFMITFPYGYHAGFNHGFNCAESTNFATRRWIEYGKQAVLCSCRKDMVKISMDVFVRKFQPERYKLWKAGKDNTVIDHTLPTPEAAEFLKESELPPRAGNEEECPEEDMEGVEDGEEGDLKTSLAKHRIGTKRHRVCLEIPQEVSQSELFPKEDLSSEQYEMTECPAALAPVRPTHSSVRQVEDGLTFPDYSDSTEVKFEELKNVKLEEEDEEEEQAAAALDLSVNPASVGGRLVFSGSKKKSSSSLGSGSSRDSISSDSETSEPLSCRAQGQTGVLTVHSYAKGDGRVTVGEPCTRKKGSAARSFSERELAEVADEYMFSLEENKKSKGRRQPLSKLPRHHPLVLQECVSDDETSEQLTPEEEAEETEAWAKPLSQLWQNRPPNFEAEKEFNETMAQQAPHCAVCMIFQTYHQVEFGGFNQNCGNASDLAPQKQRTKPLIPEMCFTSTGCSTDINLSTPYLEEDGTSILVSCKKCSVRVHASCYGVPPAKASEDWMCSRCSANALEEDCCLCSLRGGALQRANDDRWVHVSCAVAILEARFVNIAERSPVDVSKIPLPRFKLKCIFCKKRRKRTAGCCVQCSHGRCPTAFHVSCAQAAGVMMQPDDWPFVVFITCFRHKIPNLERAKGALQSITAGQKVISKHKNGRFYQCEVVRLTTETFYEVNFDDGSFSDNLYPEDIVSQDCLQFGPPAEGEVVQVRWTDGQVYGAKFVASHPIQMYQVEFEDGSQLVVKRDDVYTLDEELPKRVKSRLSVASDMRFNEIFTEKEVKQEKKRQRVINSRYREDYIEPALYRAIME
Also noted: method as in PMID 26682036. The settings on record: cited from earlier work.

The next data set concerns the target T2, JMJD2C (KDM4C) (Homo sapiens, UniProt Q9H3R0).
T2 sequence (Q9H3R0 1-1056): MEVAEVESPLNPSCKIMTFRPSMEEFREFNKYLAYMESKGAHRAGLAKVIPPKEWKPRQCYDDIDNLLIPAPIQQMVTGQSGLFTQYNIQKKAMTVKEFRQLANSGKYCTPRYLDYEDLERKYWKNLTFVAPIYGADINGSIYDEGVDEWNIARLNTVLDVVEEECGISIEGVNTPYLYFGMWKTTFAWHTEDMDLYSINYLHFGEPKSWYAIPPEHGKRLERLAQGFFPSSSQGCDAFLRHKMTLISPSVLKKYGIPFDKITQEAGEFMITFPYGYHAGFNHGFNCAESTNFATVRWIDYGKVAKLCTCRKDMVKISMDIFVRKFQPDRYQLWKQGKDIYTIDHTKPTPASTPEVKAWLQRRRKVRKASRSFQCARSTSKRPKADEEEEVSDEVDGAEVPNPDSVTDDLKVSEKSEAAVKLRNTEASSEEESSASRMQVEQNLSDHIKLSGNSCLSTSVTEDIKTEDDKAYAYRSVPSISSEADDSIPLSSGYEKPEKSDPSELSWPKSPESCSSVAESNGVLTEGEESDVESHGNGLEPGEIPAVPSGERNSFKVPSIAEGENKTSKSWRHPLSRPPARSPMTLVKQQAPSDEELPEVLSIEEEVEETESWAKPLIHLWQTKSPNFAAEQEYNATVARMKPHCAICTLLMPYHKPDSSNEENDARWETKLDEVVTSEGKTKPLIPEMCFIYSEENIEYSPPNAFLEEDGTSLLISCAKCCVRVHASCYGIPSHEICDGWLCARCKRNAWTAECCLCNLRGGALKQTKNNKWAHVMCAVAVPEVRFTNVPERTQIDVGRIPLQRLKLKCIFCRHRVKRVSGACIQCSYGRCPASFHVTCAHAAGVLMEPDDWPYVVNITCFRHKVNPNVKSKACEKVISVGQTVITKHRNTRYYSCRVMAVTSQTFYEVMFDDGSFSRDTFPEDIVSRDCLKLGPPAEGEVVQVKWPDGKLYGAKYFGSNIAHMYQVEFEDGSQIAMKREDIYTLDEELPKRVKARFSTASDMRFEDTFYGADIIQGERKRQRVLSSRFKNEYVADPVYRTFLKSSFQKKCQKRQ
Also noted: method as in PMID 26682036. The settings on record: cited from earlier work.

The target of another data set is FIH (Homo sapiens, UniProt Q9NWT6). The data set can be described thus: FIH liquid chromatography-mass spectrometry assay (RapidFire).
Chain of FIH (Q9NWT6 whole entry): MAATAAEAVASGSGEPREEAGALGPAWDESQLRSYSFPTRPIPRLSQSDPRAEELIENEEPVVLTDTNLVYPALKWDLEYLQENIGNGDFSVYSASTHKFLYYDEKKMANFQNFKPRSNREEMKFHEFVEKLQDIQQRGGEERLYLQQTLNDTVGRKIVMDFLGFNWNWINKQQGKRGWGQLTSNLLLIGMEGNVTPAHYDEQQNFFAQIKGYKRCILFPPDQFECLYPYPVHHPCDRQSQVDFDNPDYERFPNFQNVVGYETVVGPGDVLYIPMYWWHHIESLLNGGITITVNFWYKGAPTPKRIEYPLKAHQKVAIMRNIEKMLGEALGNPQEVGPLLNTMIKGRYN
In a further data set the target is T3, BBOX1 (Homo sapiens, UniProt O75936).
T3 sequence (O75936 1-387): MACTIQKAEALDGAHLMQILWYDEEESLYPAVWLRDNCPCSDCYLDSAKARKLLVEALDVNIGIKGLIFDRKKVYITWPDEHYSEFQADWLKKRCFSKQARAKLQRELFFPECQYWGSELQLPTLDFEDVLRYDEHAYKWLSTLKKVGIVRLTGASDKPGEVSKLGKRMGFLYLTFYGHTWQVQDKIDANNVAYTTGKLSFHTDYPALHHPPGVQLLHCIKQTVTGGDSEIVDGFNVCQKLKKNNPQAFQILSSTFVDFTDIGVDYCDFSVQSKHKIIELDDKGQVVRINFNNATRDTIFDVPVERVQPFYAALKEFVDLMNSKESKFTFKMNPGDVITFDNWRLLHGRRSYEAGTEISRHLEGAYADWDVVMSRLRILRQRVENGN
Also noted: method as in PMID 22730246. The conditions noted are these: cited from earlier work.

[1] abbreviates: 1 h, equimolar: IOX2 37.7 mg/kg, IOX4 35 mg/kg, DMOG 75 mg/kg.

Each structure is given as a SMILES string. Counter-ions that a name gives are not always drawn.

Method for FIH: After 15 minutes, the enzyme reaction was stopped by the addition of 4 ml 10% formic acid and the reaction mixture transferred to a RapidFire RF360 high throughput sampling robot. Samples were aspirated under vacuum onto a C4 Solid Phase Extraction (SPE) cartridge. […] Ion chromatogram data was extracted for the non-hydroxylated peptide substrate and the hydroxylated peptide product and peak area data for extracted ion chromatograms were integrated using RapidFire Integrator software. Percentage conversion of substrate to product was calculated in Microsoft Excel and IC50 values were calculated using Graphpad Prism 5.

As for `O=C(O)c1ccc(-n2[nH]cc(-n3ccnn3)c2=O)nc1` (as salt: hydrochloride) [compound 1, 6-(5-oxo-4-(1H-1,2,3-triazol-1-yl)-2,5-dihydro-1H-pyrazol-1-yl)pyridine-3-carbocylic acid hydrochloride], the melting point was ≥ 316.6 °C (dec.).

In the case of `O=C(O)Cc1cs/c(=N/C(=O)CS(=O)(=O)Cc2ccc3ccccc3c2)n1O` [BNS, bicyclic naphthalenylsulfone hydroxythiazole], at PHD2, the “displacement of [13C]-2OG from PHD2” value is “displace both 2OG and CODD”; the “displacement of [13C]-CODD from PHD2” value is “displace both 2OG and CODD”.

For the molecule `COC(=O)CNC(=O)C(=O)OC` [DMOG, dimethyloxalylglycine], in the data set on HIF1α and HIF2α (setting [1]), the “HIF1α and HIF2α induction in liver, kidney and heart” value was “induction of HIF1α and HIF2α”; the “HIF1α and HIF2α induction in the brain” value is “not”.

Turning to `O=C(O)CNC(=O)c1nc(Cl)c2ccccc2c1O` [IOX3], in the data set with HIF1α and HIF2α (IOX2 37.7 mg/kg, IOX3 30 mg/kg (equivalent molar dose), 1 h and […]), the “HIF1α induction in mouse liver” value was “lower and shorter induction of HIF1α”.

Turning to `O=C(O)CNC(=O)C(=O)O` [NOG, N-oxalylglycine], the IC50 at JMJD2A (KDM4A) is 200 nM; at JMJD2C (KDM4C), 600 nM; on FIH, 2300 nM; on BBOX1, 390 nM.

For orientation: melting point means the temperature of the solid-liquid transition. Usually IC50 stands for the concentration that inhibits the measured activity by half.

The record behind these values is publication PMC4492579, “Potent and Selective Triazole-Based Inhibitors of the Hypoxia-Inducible Factor Prolyl-Hydroxylases with Activity in the Murine Brain” (PLoS ONE, 2015).
